Measured values taken from publication PMC7733993, “Docking Characterization and in vitro Inhibitory Activity of Flavan-3-ols and Dimeric Proanthocyanidins Against the Main Protease Activity of SARS-Cov-2” (Frontiers in Plant Science, 2020).
Entries after “also recorded” stand apart in the source; their conditions may differ. Where two headings read alike, the source gives them in different places.

Target: 3CL Protease (M^pro) (SARS-CoV-2) (Severe acute respiratory syndrome coronavirus 2, UniProt P0DTD1)
Assay: biochemical
Assay type: biochemical
Settings: for inhibitory activity against M^pro: concentration not given; for inhibitory effects on the activity of Mpro: eight concentrations (0-200 μM) tested, Figure S2; for inhibition of the M^pro activity: range of concentrations from 0 to 500 μM tested; for inhibition at 100 µM: read-out: M^pro activity inhibited compared with the negative control

| SMILES | inhibitory activity against M^pro | inhibitory effects on the activity of Mpro | inhibition of the M^pro activity | inhibition at 100 µM [%] | IC50 [µM] | inhibition at 100 µM (100 μM compound) [%] |
| --- | --- | --- | --- | --- | --- | --- |
| Oc1cc(O)c2c(c1)O[C@@]1(c3ccc(O)c(O)c3)Oc3cc(O)c4c(c3[C@@H]2[C@H]1O)O[C@H](c1ccc(O)c(O)c1)[C@H](O)C4 [PA2, procyanidin A2] | did not have inhibitory activities | No inhibitory effects | did not detect | – | – | – |
| Oc1cc(O)c2c(c1)O[C@H](c1ccc(O)c(O)c1)[C@H](O)[C@H]2c1c(O)cc(O)c2c1O[C@H](c1ccc(O)c(O)c1)[C@@H](O)C2 [procyanidin B1] | inhibited | – | – | – | – | – |
| O=C(O[C@@H]1Cc2c(O)cc(O)cc2O[C@H]1c1ccc(O)c(O)c1)c1cc(O)c(O)c(O)c1 [CAG, (+)-catechin-3-O-gallate] | inhibited | – | – | 40 | – | – |
| O=C(O[C@@H]1Cc2c(O)cc(O)cc2O[C@H]1c1cc(O)c(O)c(O)c1)c1cc(O)c(O)c(O)c1 [GCG, (–)-gallocatechin-3-O-gallate] | inhibited | – | – | 50 | – | – |
| O=C(OC1Cc2c(O)cc(O)cc2OC1c1cc(O)c(O)c(O)c1)c1cc(O)c(O)c(O)c1 (single isomer, unassigned; (-)) [EGCG, (–)-epigallocatechin-3-O-gallate] | inhibited | – | – | 44.4 | – | – |
| Oc1cc(O)c2c(c1)O[C@H](c1cc(O)c(O)c(O)c1)[C@H](O)C2 [EGC, (–)-epigallocatechin] | did not have inhibitory activities; also recorded: No inhibitory activity was detected | No inhibitory effects | did not detect | – | – | – |
| Oc1cc(O)c2c(c1)O[C@H](c1ccc(O)c(O)c1)[C@H](O)C2 [EC, (–)-epicatechin] | did not have inhibitory activities; also recorded: No inhibitory activity was detected | No inhibitory effects | did not detect | – | – | – |
| Oc1cc(O)c2c(c1)O[C@H](c1ccc(O)c(O)c1)[C@H](O)[C@H]2c1c(O)cc(O)c2c1O[C@H](c1ccc(O)c(O)c1)[C@H](O)C2 [PB2, procyanidin B2] | inhibited | – | – | – | 75.3 ± 1.29 | 81.5 |
| Oc1cc(O)c2c(c1)O[C@@H](c1cc(O)c(O)c(O)c1)[C@H](O)C2 [GC, (+)-gallocatechin] | did not have inhibitory activities; also recorded: No inhibitory activity was detected | No inhibitory effects | did not detect | – | – | – |
| Oc1cc(O)c2c(c1)O[C@H](c1ccc(O)c(O)c1)[C@@H](O)C2 [CA, (+)-catechin] | did not have inhibitory activities; also recorded: No inhibitory activity was detected | No inhibitory effects | did not detect | – | – | – |
| O=C(O[C@@H]1Cc2c(O)cc(O)cc2O[C@@H]1c1ccc(O)c(O)c1)c1cc(O)c(O)c(O)c1 [ECG, (–)-epicatechin-3-O-gallate] | inhibited | – | – | 40 | 5.21 ± 0.5 | – |
